The values below come from patent US12398110B2, “Second generation inhibitors of mitochondrial permeability transition pore with improved plasma stability” (Oregon Health & Science University, priority 2019, dated 2025).

The test system of this experiment is mtPTP. Description: Ca2+ overload induced mitochondrial swelling in isolated mouse liver mitochondria. The format is biochemical. The conditions noted are these: isolated mouse liver mitochondria; average ± SEM, n = 3-41; read-out: Mitochondrial Swelling EC50. On the procedure:
We next sought to evaluate the effects of TR001-13 on mtPTP activity in vitro. This was performed on isolated mitochondria. In isolated mitochondria induction of mtPTP opening leads to mitochondrial swelling due to the oncotic pressure gradient created by matrix proteins >1.5 kDa that cannot diffuse through the open pore. In in vitro experiments, where isolated mitochondria are routinely suspended in sucrose-based isosmotic solutions, the change in mitochondrial size can be measured spectrometrically by detecting the decrease in light scattering at 540 nm.
Isolation of mitochondria. C57BL6/N mouse liver mitochondria were prepared from 2 to 6 month old male mice by standard differential centrifugation. Mice fed ad libitum were euthanized with CO2 followed cervical dislocation, their livers were existed and placed in a glass beaker containing ice-cold isolation buffer (IB: 0.25 m sucrose, 10 mm Tris-HCl, 0.1 mm EGTA-Tris, pH 7.4) supplemented with fatty acid free bovine serum albumin. Livers were then cut into small pieces with scissors, rinsed with ice-cold IB, and passed through a pre-chilled Potter homogenizer with Teflon pestle. The homogenate (˜30 mL per liver) was transferred to centrifuge tubes, and unbroken cells and nuclei were removed by centrifugation at 700 g for 10 min at 4° C. The supernatant containing mitochondria and other organelles was transferred to new tubes and centrifuged at 6000 g for 10 min at 4° C. The resulting supernatant was discarded and mitochondrial pellet was carefully suspended in ice-cold IB and spun at 9500 g for 5 min at 4° C. The pellet was suspended in IB to give a protein concentration of ˜60-80 mg/mL and stored on ice. Experiments were started immediately and completed within 5 h. Protein concentration was determined by the Biuret method.
Assessment of mitochondrial swelling. Changes in mitochondrial volume of isolated mouse liver mitochondria were followed in a 96-well clear assay plate at a final volume of 0.2 mL and 0.25 mg/mL mitochondrial protein. Absorbance was read for 30 min at 540 nm on a Tecan Infinite F200 plate reader. Activity of test compounds was addressed as follows: First, 0.1 mL of sucrose assay buffer (SAB: 0.250 m sucrose, 10 mm MOPS-Tris, 0.01 mm EGTA-Tris, 1.0 mm phosphoric acid-Tris, 10 mm glutamate and 5 mm malate, pH 7.4) supplemented with twice the CaCl2 concentration required to induce mitochondrial swelling (which was determined for each preparation of mitochondria, typically 50 μm) was dispensed to the assay plate. A set of wells also contained 2.0 mm EGTA (to prevent mitochondrial swelling). The test wells contained a range of concentrations (in 1:2 serial dilutions) of the compounds of interest or 2% DMSO. Experiments were started by the addition of 0.1 mL of mitochondrial suspension (0.5 mg/mL mitochondria in SAB without respiratory substrates) to the assay plates. EC50s±SE were determined with OriginPro software by applying Hill1 function fitting algorithm on average concentration response data of n=3-41 independent preparations.

On to `Cc1ccc(Cl)cc1NC(=O)c1cn(-c2ccc(F)c(O)c2)nn1` [TR001, N-(5-chloro-2-methylphenyl)-1-(4-fluoro-3-hydroxyphenyl)-1H-1,2,3-triazole-4-carboxamide], for which the EC50 amounted to 29 ± 8 nM.
